Several values for one entry are separate records, joined by “and”; a condition that tells them apart may be missing. Equal values may be shown once.
Key:
HeLa-CD4-βgal cells [1] = details: human
HEp-2 cells = experiment: XTT viability (cytotoxicity) assay, uninfected HEp-2 cells; details: 1 μM; 72 hours
HeLa-CD4-βgal cells [2] = experiment: XTT viability (cytotoxicity) assay, uninfected HeLa-CD4-βgal cells (Experiment 4); details: 1 μM; 48 hours
HeLa-CD4-βgal cells [3] = experiment: XTT viability (cytotoxicity) assay, uninfected HeLa-CD4-βgal cells (Experiment 5); details: 10 μM

`CC[C@H]1CN2CCc3cc(OC)c(OC)cc3[C@@H]2C[C@@H]1C[C@H]1NCCc2cc(OC)c(OC)cc21` [Emetine] was tested, and the “inhibition by viability control in XTT cytotoxicity assays” value (HeLa-CD4-βgal cells [1]) was “greater than 85%”, the “inhibition of cell viability by cytotoxic compound control” value (HeLa-CD4-βgal cells [1]) was “greater than 90%” and the “HEp-2 viability in the XTT assay (percentage values), controls” value (HEp-2 cells) was 6.8 ± 1.1 % vehicle. The “Viability of HeLa-CD4-βgal cells in the XTT assay (percentage values), controls” value (HeLa-CD4-βgal cells [2]) was 10.0 ± 1.7%, the “Viability of Uninfected HeLa-CD4-β gal Cells (% vehicle alone), controls” value (HeLa-CD4-βgal cells [3]; 48 hours) was 5.6 ± 0.7 % vehicle alone and the “Viability (A490), controls, HeLa-CD4-βgal cells” value (HeLa-CD4-βgal cells [3]; raw absorbance 490 nm) was 0.213 and 0.203.

Reference: US20240124545A1, “COMPOSITIONS AND METHODS RELATING TO THE TREATMENT OF DISEASES” (ILC THERAPEUTICS LIMITED, priority 2021, published 2024)
